Laboratory results reported in US11046680B1, “Heteroaryl-substituted triazoles as APJ receptor agonists” (priority 2016, dated 2021).

Biological target: human APJ receptor (Homo sapiens (Human), UniProt P35414)
Experiment: biochemical
Assay type: biochemical
Details: [35S]GTPγS binding, CHO membranes expressing human APJ receptor; read-out: Activity hAPJ SPA EC50 IP
Method: The human APJ receptor was cloned by polymerase chain reaction and the gene encoding the receptor was subcloned in pFLAG-CMV™-3 expression vector (Sigma, Saint Louis, Mo. USA) in-house at Amgen. A GTPγS binding assay was performed on membranes prepared from CHO cells stably expressing human APJ receptor. The optimum experimental conditions for the concentrations of GDP, MgCl2, and NaCl in the assay buffer were initially determined. […] Incubation was at RT for 90 min and the microplate was read using a ViewLux™ ultra HTS Microplate Imager (PerkinElmer, Inc.).

human APJ receptor, sequence (P35414 whole entry): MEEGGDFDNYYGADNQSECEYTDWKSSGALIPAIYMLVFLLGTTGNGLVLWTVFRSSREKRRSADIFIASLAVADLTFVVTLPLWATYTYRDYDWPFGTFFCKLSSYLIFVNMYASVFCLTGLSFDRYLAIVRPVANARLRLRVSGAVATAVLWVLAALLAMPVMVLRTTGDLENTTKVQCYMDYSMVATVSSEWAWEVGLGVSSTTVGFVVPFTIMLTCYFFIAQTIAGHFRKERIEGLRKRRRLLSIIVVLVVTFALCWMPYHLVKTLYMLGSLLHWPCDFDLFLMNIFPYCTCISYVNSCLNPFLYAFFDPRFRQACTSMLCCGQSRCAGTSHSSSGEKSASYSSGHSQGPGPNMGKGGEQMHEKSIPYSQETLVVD

Row | Compound | EC50 [nM]
1 | COc1cccc(OC)c1-n1c(NS(=O)(=O)C[C@H](O)c2ccc(Cl)cn2)nnc1-c1ccn(C)n1 (mixture of isomers) [Example 363.0, (R)-2-(5-Chloropyridin-2-yl)-N-(4-(2,6-dimethoxyphenyl)-5-(1-methyl-1H-pyrazol-3-yl)-4H-1,2,4-triazol-3-yl)-2-hydroxyethanesulfonamide and (S)-2-(5-chloropyridin-2-yl)-N-(4-(2,6-dimethoxyphenyl)-5-(1-methyl-1H-pyrazol-3-yl)-4H-1,2,4-triazol-3-yl)-2-hydroxyethanesulfonamide] | 1.5
2 | (R)-N-(4-(2,6-dimethoxyphenyl)-5-(pyrimidin-4-yl)-4H-1,2,4-triazol-3-yl)-1-(5-fluoropyrimidin-2-yl)propane-2-sulfonamide and (R)-N-(4-(2,6-dimethoxyphenyl)-5-(pyrimidin-4-yl)-4H-1,2,4-triazol-3-yl)-1-(5-fluoropyrimidin-2-yl)propane-2-sulfonamide [Example 31.0] | 190
3 | COc1cccc(OC)c1-n1c(NS(=O)(=O)[C@H](C)Cc2ncc(F)cn2)nnc1-c1nc(C(C)C)cs1 (single isomer, unassigned) [Example 157.0, (R)-N-(4-(2,6-dimethoxyphenyl)-5-(4-isopropylthiazol-2-yl)-4H-1,2,4-triazol-3-yl)-1-(5-fluoropyrimidin-2-yl)propane-2-sulfonamide or (S)-N-(4-(2,6-dimethoxyphenyl)-5-(4-isopropylthiazol-2-yl)-4H-1,2,4-triazol-3-yl)-1-(5-fluoropyrimidin-2-yl)propane-2-sulfonamide] | 58
4 | COc1cccc(OC)c1-n1c(NS(=O)(=O)CCc2ccc(Cl)cc2)nnc1-c1ncc(Cl)s1 [Example 144.0, 2-(4-chlorophenyl)-N-(5-(5-chlorothiazol-2-yl)-4-(2,6-dimethoxyphenyl)-4H-1,2,4-triazol-3-yl)ethanesulfonamide] | 330
5 | COc1cccc(OC)c1-n1c(NS(=O)(=O)[C@H](C)Cc2ccc(C#N)cn2)nnc1-c1nc(C)cs1 (single isomer, unassigned) [Example 11.0, (2R)-1-(5-cyano-2-pyridinyl)-N-(4-(2,6-dimethoxyphenyl)-5-(4-methyl-1,3-thiazol-2-yl)-4H-1,2,4-triazol-3-yl)-2-propanesulfonamide or (2S)-1-(5-cyano-2-pyridinyl)-N-(4-(2,6-dimethoxyphenyl)-5-(4-methyl-1,3-thiazol-2-yl)-4H-1,2,4-triazol-3-yl)-2-propanesulfonamide] | 0.8
6 | CO[C@H](c1ncc(Cl)cn1)[C@H](C)S(=O)(=O)Nc1nnc(-c2ccn(C)n2)n1-c1c(F)cccc1F [Example 229.0, (1R,2S)-1-(5-chloro-2-pyrimidinyl)-N-(4-(2,6-difluorophenyl)-5-(1-methyl-1H-pyrazol-3-yl)-4H-1,2,4-triazol-3-yl)-1-methoxy-2-propanesulfonamide] | 3.1
7 | COc1ncnc(OC)c1-n1c(NS(=O)(=O)[C@@H](C)[C@H](C)c2ncc(Cl)cn2)nnc1-c1cnn2ccccc12 [Example 440.0, (2S,3R)-3-(5-chloropyrimidin-2-yl)-N-(4-(4,6-dimethoxypyrimidin-5-yl)-5-(pyrazolo[1,5-a]pyridin-3-yl)-4H-1,2,4-triazol-3-yl)butane-2-sulfonamide] | 0.96
8 | COc1cccc(OC)c1-n1c(NS(=O)(=O)C[C@H](OC)c2ccc(Cl)cc2S(C)(=O)=O)nnc1-c1ccn(C)n1 (mixture of isomers) [Example 305.0, (2R)-2-(4-Chloro-2-(methylsulfonyl)phenyl)-N-(4-(2,6-dimethoxyphenyl)-5-(1-methyl-1H-pyrazol-3-yl)-4H-1,2,4-triazol-3-yl)-2-methoxyethanesulfonamide and (2S)-2-(4-chloro-2-(methylsulfonyl)phenyl)-N-(4-(2,6-dimethoxyphenyl)-5-(1-methyl-1H-pyrazol-3-yl)-4H-1,2,4-triazol-3-yl)-2-methoxyethanesulfonamide] | 0.44
9 | COc1cnc([C@@H](OC)[C@H](C)S(=O)(=O)Nc2nnc(-c3ccn(C)n3)n2-c2c(OC)ncnc2OC)cn1 [Example 460.0, (1R,2S)-N-(4-(4,6-dimethoxy-5-pyrimidinyl)-5-(1-methyl-1H-pyrazol-3-yl)-4H-1,2,4-triazol-3-yl)-1-methoxy-1-(5-methoxy-2-pyrazinyl)-2-propanesulfonamide] | 2.6
10 | COc1cccc(OC)c1-n1c(NS(=O)(=O)[C@@H](C)[C@H](OC)c2ncc(Cl)cn2)nnc1-c1cnn2ccccc12 [Example 423.0, (1R,2S)-1-(5-chloropyrimidin-2-yl)-N-(4-(2,6-dimethoxyphenyl)-5-(pyrazolo [1,5-a]pyridin-3-yl)-4H-1,2,4-triazol-3-yl)-1-methoxypropane-2-sulfonamide] | 0.68
11 | COc1cccc(OC)c1-n1c(NS(=O)(=O)[C@@H](C)[C@H](OC)c2ncc(C)cn2)nnc1-c1nccs1 [Example 341.0, (1R,2S)-N-(4-(2,6-dimethoxyphenyl)-5-(1,3-thiazol-2-yl)-4H-1,2,4-triazol-3-yl)-1-methoxy-1-(5-methyl-2-pyrimidinyl)-2-propanesulfonamide] | 0.73
12 | CC(C)O[C@@H](c1ncc(Cl)cn1)[C@H](C)S(=O)(=O)Nc1nnc(-c2ccn(C)n2)n1C(C)C [Example 537.0, (1S,2S)-1-(5-chloro-2-pyrimidinyl)-N-(5-(1-methyl-1H-pyrazol-3-yl)-4-(2-propanyl)-4H-1,2,4-triazol-3-yl)-1-(2-propanyloxy)-2-propanesulfonamide] | 27
13 | COc1cccc(OC)c1-n1c(NS(=O)(=O)[C@H](C)[C@@H](OC)c2ncc(F)cn2)nnc1-c1ccn(C)n1 (single isomer, unassigned) [Example 118.0, (1S,2R)-N-(4-(2,6-dimethoxyphenyl)-5-(1-methyl-1H-pyrazol-3-yl)-4H-1,2,4-triazol-3-yl)-1-(5-fluoropyrimidin-2-yl)-1-methoxypropane-2-sulfonamide or (1R,2S)-N-(4-(2,6-dimethoxyphenyl)-5-(1-methyl-1H-pyrazol-3-yl)-4H-1,2,4-triazol-3-yl)-1-(5-fluoropyrimidin-2-yl)-1-methoxypropane-2-sulfonamide] | 100
14 | CCc1csc(-c2nnc(NS(=O)(=O)[C@H](C)Cc3ncc(F)cn3)n2-c2c(OC)cccc2OC)n1 (single isomer, unassigned) [Example 104.0, (R)-N-(4-(2,6-dimethoxyphenyl)-5-(4-ethylthiazol-2-yl)-4H-1,2,4-triazol-3-yl)-1-(5-fluoropyrimidin-2-yl)propane-2-sulfonamide or (S)-N-(4-(2,6-dimethoxyphenyl)-5-(4-ethylthiazol-2-yl)-4H-1,2,4-triazol-3-yl)-1-(5-fluoropyrimidin-2-yl)propane-2-sulfonamide] | 4.6
15 | COc1cccc(OC)c1-n1c(NS(=O)(=O)C[C@H](OC)c2ccc(Cl)cc2S(C)(=O)=O)nnc1-c1ccn(C)n1 (single isomer, unassigned) [Example 381.0, (R)-2-(4-Chloro-2-(methylsulfonyl)phenyl)-N-(4-(2,6-dimethoxyphenyl)-5-(1-methyl-1H-pyrazol-3-yl)-4H-1,2,4-triazol-3-yl)-2-methoxyethanesulfonamide or (S)-2-(4-chloro-2-(methylsulfonyl)phenyl)-N-(4-(2,6-dimethoxyphenyl)-5-(1-methyl-1H-pyrazol-3-yl)-4H-1,2,4-triazol-3-yl)-2-methoxyethanesulfonamide] | 0.29
16 | COc1cccc(OC)c1-n1c(NS(=O)(=O)[C@H](C)[C@@H](C)c2ncc(C)cn2)nnc1-c1csc(C)n1 (stereo in doubt) [Example 2.0, (2R,3S)-N-(4-(2,6-dimethoxyphenyl)-5-(2-methylthiazol-4-yl)-4H-1,2,4-triazol-3-yl)-3-(5-methylpyrimidin-2-yl)butane-2-sulfonamide] | 0.32
17 | (2R,3S)-N-(4-(2,6-dimethoxyphenyl)-5-(1-methyl-1H-pyrazol-3-yl)-4H-1,2,4-triazol-3-yl)-3-(5-methyl-1-oxido-2-pyrazinyl)-2-butanesulfonamide and (2S,3R)-N-(4-(2,6-dimethoxyphenyl)-5-(1-methyl-1H-pyrazol-3-yl)-4H-1,2,4-triazol-3-yl)-3-(5-methyl-1-oxido-2-pyrazinyl)-2-butanesulfonamide [Example 280.0] | 3.5
18 | COc1cccc(OC)c1-n1c(NS(=O)(=O)CCc2ncc(C)cn2)nnc1-c1nc(C)cs1 [Example 10.0, N-(4-(2,6-dimethoxyphenyl)-5-(4-methyl-1,3-thiazol-2-yl)-4H-1,2,4-triazol-3-yl)-2-(5-methyl-2-pyrimidinyl)ethanesulfonamide] | 8.4
19 | COc1cccc(OC)c1-n1c(NS(=O)(=O)[C@@H](C)[C@H](C)c2ncc(Cl)cn2)nnc1-c1n[nH]c2ccccc12 [Example 429.0] | 7.6
20 | CC(C)O[C@@H](c1ncc(Cl)cn1)[C@H](C)S(=O)(=O)Nc1nnc(-c2cnn(C)c2)n1C1CC1 [Example 536.0, (1S,2S)-1-(5-chloro-2-pyrimidinyl)-N-(4-cyclopropyl-5-(1-methyl-1H-pyrazol-4-yl)-4H-1,2,4-triazol-3-yl)-1-(2-propanyloxy)-2-propanesulfonamide] | 70
21 | (R)-N-(4-(2,6-dimethoxyphenyl)-5-(1,5-dimethyl-1H-pyrazol-3-yl)-4H-1,2,4-triazol-3-yl)-1-(5-fluoropyrimidin-2-yl)propane-2-sulfonamide and (S)-N-(4-(2,6-dimethoxyphenyl)-5-(1,5-dimethyl-1H-pyrazol-3-yl)-4H-1,2,4-triazol-3-yl)-1-(5-fluoropyrimidin-2-yl)propane-2-sulfonamide [Example 53.0] | 9.7
22 | CCc1csc(-c2nnc(NS(=O)(=O)CCc3ccc(F)cc3C#N)n2-c2c(OC)cccc2OC)n1 [Example 153.0, 2-(2-cyano-4-fluorophenyl)-N-(4-(2,6-dimethoxyphenyl)-5-(4-ethylthiazol-2-yl)-4H-1,2,4-triazol-3-yl)ethanesulfonamide] | 11
